Data from publication PMC5701137, “Discovery of novel choline acetyltransferase inhibitors using structure-based virtual screening” (Scientific Reports, 2017).
pIC50, pKi: −log10 of the molar value. Several values for one entry are separate records, joined by “and”; a condition that tells them apart may be missing. Identical values can stand only once.

What was measured:
human rChAT = target: T1, human rChAT (Homo sapiens, UniProt P28329); test: In vitro ChAT activity inhibition fluorometric assay and kinetic studies; type: biochemical; details: 100 µM compound; compared to control; mean of three experiments in triplicate; read-out: ChAT % IR (inhibition rate)
T1 construct: made in house; host or cells: E. coli BL21 Rosetta2
T1 sequence (P28329 1-630 isoform P28329-3): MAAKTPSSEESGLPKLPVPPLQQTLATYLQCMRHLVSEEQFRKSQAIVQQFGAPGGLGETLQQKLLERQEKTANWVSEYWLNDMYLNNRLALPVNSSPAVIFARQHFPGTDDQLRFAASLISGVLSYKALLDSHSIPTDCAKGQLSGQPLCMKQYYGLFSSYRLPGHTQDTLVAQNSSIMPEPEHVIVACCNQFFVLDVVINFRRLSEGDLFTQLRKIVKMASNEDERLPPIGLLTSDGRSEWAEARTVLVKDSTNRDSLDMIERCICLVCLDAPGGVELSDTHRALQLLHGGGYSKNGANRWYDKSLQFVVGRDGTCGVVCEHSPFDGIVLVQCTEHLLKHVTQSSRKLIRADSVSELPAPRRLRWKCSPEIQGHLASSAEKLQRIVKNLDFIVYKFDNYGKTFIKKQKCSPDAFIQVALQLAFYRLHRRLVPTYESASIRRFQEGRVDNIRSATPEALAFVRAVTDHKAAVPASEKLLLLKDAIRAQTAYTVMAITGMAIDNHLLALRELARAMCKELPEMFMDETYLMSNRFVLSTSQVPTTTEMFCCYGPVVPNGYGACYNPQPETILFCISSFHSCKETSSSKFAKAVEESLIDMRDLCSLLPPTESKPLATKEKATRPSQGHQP
Protocol: ChAT activity was measured using our newly developed fluorometric assay, using human recombinant ChAT (rChAT) protein. The reagents, choline chloride, acetyl coenzyme-A (ACoA, A2181) and 7-Diethylamino-3-(4-maleimidophenyl)-4-methylcoumarin (CPM) were purchased from Sigma-Aldrich (St. Louis, MO, USA).
The ChAT assay could be run in either 96-well or 384-well plates. For 96-well plates, 50 μL/well of 0.212 µg/ml (final concentration) of the recombinant ChAT was incubated with 100 μM different Asinex compounds (50 μL/well) for 10–30 minutes at room temperature in dilution buffer (10 mM Tris-HCl, pH 7.4, 150 mM NaCl, 1.0 mM EDTA, 0.05% (v/v) Triton X-100). Then, 50 µL of a cocktail-A [dilution buffer containing choline chloride (final concentration 150 µM), ACoA (final concentration 13.3 µM) and CPM (final concentration 15 µM)] was added to each well. Immediately after adding the cocktail-A, the changes in fluorescence was monitored kinetically at 479 nm after exciting at 390 nm at 1–2 minute intervals for 15–20 minutes using a microplate spectrophotometer reader (Infinite M1000, Tecan).
Each Asinex compounds were run in triplicates. On each 96-wells plate, several enzyme wells without inhibitor were also included during measurements as control and for estimating the inhibition level. Negative controls were wells without enzyme. The percentage inhibition for each Asinex compound was calculated based on the enzyme control value as a reference (100% activity). The compounds showing over 50% inhibition of enzyme activity were selected for further kinetic studies.
(§1) For kinetic studies, a similar protocol as inhibition assay was followed; a dilution series of five different concentrations ranging from 10^−6 to 10^−9 M were prepared for each selected Asinex compounds. For ChAT, the A-CoA was kept constant at 10 μM (final) but the concentration of choline chloride varied between 320–10 μM. For BuChE, BTC was used as the substrate in the concentrations ranging from 0.0625 to 2 mM. For AChE, ATC was used as the substrate in the concentrations ranging from 0.0312 to 1 mM. Each compound concentration was measured in duplicates. The rate of enzyme activity (as ∆OD/hr kinetic data) was calculated and processed using the GraphPad Prism 7 analysis software. The inhibitory constant (Ki) values were determined from the dose-response curve and the half-maximal inhibitory concentration (IC50) values were calculated by plotting the percentage enzyme activity vs. the log of the Asinex compound concentrations and fitting the data using the nonlinear regression Enzyme Kinetics-Inhibition function.
The Michaelis-Menten constant (Km) and maximal velocity (Vmax) values were calculated from substrate-velocity curve after fitting the data with non-linear regression Michaelis-Menten kinetic function. The Km and Vmax values were further used to plot the Lineweaver-Burk plots; the plots were fitted using linear regression function.

recombinant human AChE = target: T2, recombinant human AChE (Homo sapiens, UniProt P22303); test: Modified Ellman's colorimetric assay for AChE and kinetic studies; type: biochemical; details: for inhibition at 200 µM: 200 µM compound, compared to control, mean of three experiments in triplicate, read-out: AChE % IR (inhibition rate); for pKi / pIC50: mean of two experiments; for pIC50: substrate ATC 0.5 mM
T2 construct: purchased Sigma C1682
From the text: (§2) A modified version of Ellman’s colorimetric assay[16],[17] was adapted to a high throughput assay for the enzymatic activity of BuChE and AChE. The reagent, butyrylthiocholine iodide (BTC), acetylthiocholine iodide (ATC), 5,5′-dithiobis (2-nitrobenzoic acid) (DTNB) were purchased from Sigma-Aldrich (St. Louis, MO, USA). The modified assay details are as previously described[34],[35]. The main modification concerned with the high throughput adaptation of the assay for use in 384-well plates. Briefly, 25 μL/well of a 1:450 diluted solution of a pooled human plasma and 1:768 diluted (3.5 ng/ml final concentration) purified recombinant human AChE protein (Sigma, Cat no. C1682) was used for measurement of BuChE and AChE activity, respectively. In the initial in vitro screening step, the wells were pre-incubated with 25 μL/wells of different Asinex compounds for 10–30 minutes at room temperature. The concentration of the compounds working solution was 3X to give a final concentration of 200 μM in a final volume of 75 μL in each well. The stock concentration of the compounds were prepared in 100% DMSO. The stock concentration was chosen usually at 10 mM, allowing the final DMSO concentration in the wells to be less than 4%. Finally, 25 μL of a cocktail mix prepared in Na/K phosphate buffer, containing DTNB (final concentration 0.4 mM) and BTC, (final concentration 1 mM) or ATC (final concentration 0.5 mM) was added to each well and the changes in absorbance was monitored at 412 nm wavelength for 15–20 minutes with one-minute interval, using a microplate spectrophotometer reader (Infinite M1000, Tecan). The rate of the enzyme activity was determined from the linear part of the kinetic reaction curves as ∆OD/time.
as §1

plasma BuChE = target: T3, plasma BuChE (Homo sapiens, UniProt P06276); test: Modified Ellman's colorimetric assay for BuChE (pooled human plasma) and kinetic studies; type: biochemical; details: for inhibition at 200 µM: 200 µM compound, compared to control, mean of three experiments in triplicate, read-out: BuChE % IR (inhibition rate)
T3 construct: 1:450 diluted solution of a pooled human plasma; from tissue; host or cells: pooled human plasma
From the text: as §2, §1

HEK 293 cells = test: MTT cell viability assay; type: cell-based; details: overnight, control cells 100%, mean ± SD of 3 readings
Protocol: Finally, to assess the prospective of the identified compounds for further development into ChAT ligands, we assessed the compounds active against ChAT, AChE and BuChE, for their cellular toxicity on human embryonic kidney (HEK 293) cells using the cell viability 3-(4,5-dimethylthiazol-2-yl)-2,5-diphenyltetrazolium bromide (MTT) assay. All compounds were evaluated at 10 and 50 µM concentrations. The cell viability data is given in Table 4 (also represented as a bar chart in Fig. 9).
The in vitro cellular toxicity of the active compounds was evaluated using MTT assay. Briefly, Human embryonic kidney epithelial (HEK-293) cells cultured at 37 °C in a humidified environment with 5% CO2 in Dulbecco’s Modified Eagle’s medium (DMEM) in 96 well plate to obtain 70–80% confluency. Further, the cells were incubated overnight at 37 °C with 10 µM and 50 µM compounds in triplicate. Cells treated with 1% DMSO were used as controls. At the end of the treatment (12 h), 10 μL of 12 mM MTT dissolved in Phosphate buffer saline pH 7.4, was added to each well and incubated for an additional 2 h at 37 °C. The media was then removed from the plate and 100 µL of DMSO was added to dissolve the violet formazan crystals. Finally, the absorbance was measured at 540 nm with a reference wavelength of 630 nm on Tecan spectrophotometer with shaking before the reading. The percentage viability was calculated taking 1% DMSO control as 100 percent and presented as mean ± SD.

[1] = substrate BTC 1 mM, mean of two experiments

T2 sequence (P22303 32-614): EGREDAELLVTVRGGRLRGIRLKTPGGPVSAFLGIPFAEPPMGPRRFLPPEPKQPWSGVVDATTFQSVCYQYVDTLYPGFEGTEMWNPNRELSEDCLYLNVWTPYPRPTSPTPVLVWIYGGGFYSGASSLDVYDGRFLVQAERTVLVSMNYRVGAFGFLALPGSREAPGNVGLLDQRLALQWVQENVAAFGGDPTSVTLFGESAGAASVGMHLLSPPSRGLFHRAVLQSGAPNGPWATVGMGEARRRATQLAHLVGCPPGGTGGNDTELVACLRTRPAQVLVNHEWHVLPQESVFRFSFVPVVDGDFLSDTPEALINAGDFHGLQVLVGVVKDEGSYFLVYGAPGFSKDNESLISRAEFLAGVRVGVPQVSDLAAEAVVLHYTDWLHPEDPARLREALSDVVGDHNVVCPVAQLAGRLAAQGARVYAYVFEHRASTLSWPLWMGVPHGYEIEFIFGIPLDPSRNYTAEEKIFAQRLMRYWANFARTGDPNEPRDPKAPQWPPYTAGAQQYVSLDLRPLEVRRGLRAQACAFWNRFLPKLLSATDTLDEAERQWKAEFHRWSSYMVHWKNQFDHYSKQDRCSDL
T3 sequence (P06276 29-602): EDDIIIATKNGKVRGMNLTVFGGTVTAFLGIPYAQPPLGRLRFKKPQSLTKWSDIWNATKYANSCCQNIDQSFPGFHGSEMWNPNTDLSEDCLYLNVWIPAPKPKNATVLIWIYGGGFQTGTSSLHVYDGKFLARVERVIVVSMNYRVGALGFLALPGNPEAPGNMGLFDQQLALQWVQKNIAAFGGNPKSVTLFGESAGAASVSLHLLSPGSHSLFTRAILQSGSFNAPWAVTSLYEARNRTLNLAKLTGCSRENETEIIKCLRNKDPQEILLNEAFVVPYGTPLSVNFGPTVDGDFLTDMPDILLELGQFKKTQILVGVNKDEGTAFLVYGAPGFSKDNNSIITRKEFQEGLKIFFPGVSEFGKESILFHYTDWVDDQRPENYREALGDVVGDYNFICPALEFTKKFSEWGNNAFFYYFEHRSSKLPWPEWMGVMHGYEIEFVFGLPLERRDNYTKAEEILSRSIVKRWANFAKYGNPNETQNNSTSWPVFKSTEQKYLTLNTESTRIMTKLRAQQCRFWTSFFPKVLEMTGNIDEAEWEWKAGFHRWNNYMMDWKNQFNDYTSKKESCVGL

SMILES	inhibition at 100 µM (human rChAT) [%]	inhibition at 200 µM (recombinant human AChE) [%]	inhibition at 200 µM (plasma BuChE) [%]	pKi (plasma BuChE; mean of two experiments)	pIC50 (plasma BuChE; [1])	% of cell proliferation (HEK 293 cells; 10 µM) [%]	% of cell proliferation (HEK 293 cells; 50 µM) [%]	mode of inhibition of BuChE (plasma BuChE; Lineweaver-Burk plot and nonlinear regression analysis)	mode of inhibition of AChE (recombinant human AChE; Lineweaver-Burk plot and nonlinear regression fit)	pKi (recombinant human AChE)	pIC50 (recombinant human AChE)	BuChE IC50 (plasma BuChE; [1])
O=C(NC1CCCC1)c1ccc(CN2CCN(Cc3ccccc3)CC2)cc1 [Compound A2]	6.9	0	> 50	4.07	3.28	62.1 ± 4.0	72.2 ± 13.1					
CCn1c(CNC(=O)COc2ccccc2F)cc2ccccc21 [Compound C2]	0	0		4.22	~3.44 and 3.44	87.7 ± 5.0	76.2 ± 7.6	competitive mode of inhibition				
CCn1c(CNC(=O)COc2ccc(F)cc2)cc2ccccc21 [Compound C4]	0	4.9	> 50	4.23	3.28	82.4 ± 4.5	84.0 ± 10.0					
O=C(NCc1ccc(CN2CCCCC2)cc1)c1nc(-c2ccc(C(F)(F)F)cc2)no1 [Compound C5]	0		> 50			78.9 ± 3.3	36.1 ± 2.4		non-competitive mode of inhibition	4.63	~5.20 and 5.20	could not be calculated due to lack of complete inhibition even at the highest tested concentration of 300 µM
CCN(CC)C(=O)c1cccc(Nc2ccc(-c3ccccc3OC)nn2)c1 [Compound D3]	0	> 50	20.7			79.2 ± 2.5	66.2 ± 4.0			3.75	3.60	
COc1cc(CN2CCN(Cc3ccccc3Cl)CC2)c([N+](=O)[O-])cc1OC [Compound D4]	3.5		18.2			84.0 ± 3.8	68.1 ± 1.4			3.85	3.84	
COc1ccc(-c2cc(C(F)(F)F)nc(SCCC(=O)N3CCN(C)CC3)n2)cc1 [Compound D6]	4.8	0	9.3									
CCOc1ccc2[nH]c(=O)c(CN(Cc3ccccc3)C(=O)N3CCCC3)cc2c1 [Compound D7]	0	27.7	22.4									
CCc1ccccc1NC(=O)CSc1nnc(-c2cccnc2)n1CC [Compound E2]	4.1	2.7	12									
O=C(CSc1nnc(-c2cccc(F)c2)o1)N1CCC(Cc2ccccc2)CC1 [Compound E3]	10.3	10.2	23									
COc1cccc(OCC(=O)Nc2cc3oc4ccccc4c3cc2OC)c1 [Compound E4]	4.8	1.5	11.7									
C=C(C)CN1N=C(C)Cn2c1nc1c2c(=O)n(C/C=C/c2ccccc2)c(=O)n1C [Compound E5]	0	4.1	12.8									
Cc1ccccc1OCC(=O)Oc1ccc2c(C)cc(=O)oc2c1 [Compound E6]	2.5	0	13.2									
Cc1onc(-c2ccccc2Cl)c1C(=O)N1CCN(Cc2ccc3c(c2)OCO3)CC1 [Compound E7]	0	0.5	37.5									
